Source: ChEMBL document CHEMBL1151864, “Substrate based peptide aldehyde inhibits bacterial type I signal peptidase” (Bioorg Med Chem Lett, 2009)
Values after ≈ are worked out from the molar mass of the structure shown. Active and inactive are the calls of the source. The rule behind the calls is not given here. Residues, ends and D or L forms follow the SMILES beside them. *: point of attachment. Decanoyl = CCCCCCCCCC(=O)*

Key:
[1] = Inhibition of Staphylococcus aureus type I signal peptidase SpsB-mediated processing of internally quenched fluorescent synthetic peptide substrate
Staphylococcus aureus [2] = assay: Inhibition of Staphylococcus aureus type I signal peptidase SpsB-mediated processing of internally quenched fluorescent synthetic peptide substrate at 200 uM
[3] = target: Signal peptidase I (Escherichia coli K-12) (UniProt P00803); assay: (§1) Inhibition of Escherichia coli type I signal peptidase lepB
[4] = test system: Staphylococcus epidermidis; assay: Antimicrobial activity against Staphylococcus epidermidis by broth microdilution method; assay type: functional
Staphylococcus aureus [5] = assay: Antimicrobial activity against Staphylococcus aureus by broth microdilution method; assay type: functional
Escherichia coli = assay: Antimicrobial activity against Escherichia coli by broth microdilution method; assay type: functional
Signal peptidase I = Signal peptidase I (Escherichia coli K-12, UniProt P00803); assay: as §1
Signal peptidase I, sequence (P00803 whole entry): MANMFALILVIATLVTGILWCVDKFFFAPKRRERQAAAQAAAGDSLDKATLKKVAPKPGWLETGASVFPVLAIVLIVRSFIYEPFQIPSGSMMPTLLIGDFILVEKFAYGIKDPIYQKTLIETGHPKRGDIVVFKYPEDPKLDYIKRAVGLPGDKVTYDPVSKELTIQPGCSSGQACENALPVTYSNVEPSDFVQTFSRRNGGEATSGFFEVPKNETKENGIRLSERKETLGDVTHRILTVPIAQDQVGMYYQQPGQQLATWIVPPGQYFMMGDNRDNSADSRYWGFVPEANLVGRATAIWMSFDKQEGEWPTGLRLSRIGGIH

Signal peptidase I (Escherichia coli K-12), sequence (P00803 whole entry): as above

IC50 [1] [µM]	inhibition (Staphylococcus aureus [2]) [%]	Activity [3]	Compound	other results
30.8	98	inactive	CCCCCCCCCC(=O)N[C@H](C(=O)N[C@@H](C)C(=O)N[C@@H](CCCCN)C(=O)N[C@@H](C)C(=O)N1CCC[C@H]1C(=O)N[C@@H](CO)C(=O)N[C@@H](CCCCN)C(=O)N[C@H](C(=O)N[C@@H](CC(=O)O)C(=O)N[C@@H](CC(=O)O)C(=O)O)[C@@H](C)CC)[C@@H](C)O (Decanoyl-TAKAPSKIDD-OH)	–
0.8	107	inactive	CCCCCCCCCC(=O)N[C@@H](CC(C)C)C(=O)N[C@H](C(=O)N1CCC[C@H]1C(=O)N[C@H](C(=O)N[C@@H](C)C(=O)N[C@@H](CCCCN)C(=O)N[C@@H](C)C(=O)N1CCC[C@H]1C(=O)N[C@@H](CO)C(=O)N[C@@H](CCCCN)C(=O)N[C@H](C(=O)N[C@@H](CC(=O)O)C(=O)N[C@@H](CC(=O)O)C(=O)O)[C@@H](C)CC)[C@@H](C)O)[C@@H](C)O (Decanoyl-LTPTAKAPSKIDD-OH)	Activity [4]: inactive; Activity (Staphylococcus aureus [5]): inactive; Activity (Escherichia coli): inactive
1	108	inactive	CCCCCCCCCC(=O)N[C@@H](CC(C)C)C(=O)N[C@H](C(=O)N1CCC[C@H]1C(=O)N[C@H](C(=O)N[C@@H](C)C(=O)N[C@@H](CCCCN)C(=O)N[C@@H](C)C(=O)N1CCC[C@H]1C(=O)N[C@@H](CO)C(=O)N[C@@H](CCCCN)C(=O)O)[C@@H](C)O)[C@@H](C)O (Decanoyl-LTPTAKAPSK-OH)	–
4.8	106	inactive	CCCCCCCCCC(=O)N[C@H](C(=O)N1CCC[C@H]1C(=O)N[C@H](C(=O)N[C@@H](C)C(=O)N[C@@H](CCCCN)C(=O)N[C@@H](C)C(=O)N1CCC[C@H]1C(=O)N[C@@H](CO)C(=O)N[C@@H](CCCCN)C(=O)N[C@H](C(=O)N[C@@H](CC(=O)O)C(=O)N[C@@H](CC(=O)O)C(=O)O)[C@@H](C)CC)[C@@H](C)O)[C@@H](C)O (Decanoyl-TPTAKAPSKIDD-OH)	–
22.5	92.9	inactive	CCCCCCCCCC(=O)N[C@@H](CC(C)C)C(=O)N[C@H](C(=O)N1CCC[C@H]1C(=O)N[C@H](C(=O)N[C@@H](C)C(=O)N[C@@H](CCCCN)C(=O)N[C@@H](C)C(=O)N1CCC[C@H]1C(=O)N[C@@H](CO)C(=O)O)[C@@H](C)O)[C@@H](C)O (Decanoyl-LTPTAKAPS-OH)	–
5	108	inactive	CCCCCCCCCC(=O)N[C@@H](CC(C)C)C(=O)N[C@H](C(=O)N1CCC[C@H]1C(=O)N[C@H](C(=O)N[C@@H](C)C(=O)N[C@@H](CCCCN)C(=O)N[C@@H](C)C(=O)N1CCC[C@H]1C(=O)N[C@@H](CO)C(=O)N[C@@H](CCCCN)C(=O)N[C@H](C(=O)N[C@@H](CC(=O)O)C(=O)O)[C@@H](C)CC)[C@@H](C)O)[C@@H](C)O (Decanoyl-LTPTAKAPSKID-OH)	–
> 200	21.6	inactive	CC[C@H](C)[C@H](NC(=O)[C@H](CCCCN)NC(=O)[C@H](CO)NC(=O)[C@@H]1CCCN1C(=O)[C@H](C)NC(=O)[C@H](CCCCN)NC(=O)[C@H](C)NC(=O)[C@@H](NC(=O)[C@@H]1CCCN1C(=O)[C@@H](NC(=O)[C@@H](N)CC(C)C)[C@@H](C)O)[C@@H](C)O)C(=O)N[C@@H](CC(=O)O)C(=O)N[C@@H](CC(=O)O)C(=O)O (H-LTPTAKAPSKIDD-OH)	–
> 200	0	inactive	CCCCCCCCCC(=O)N[C@@H](C)C(=O)N[C@@H](CCCCN)C(=O)N[C@@H](C)C(=O)N1CCC[C@H]1C(=O)N[C@@H](CO)C(=O)N[C@@H](CCCCN)C(=O)N[C@H](C(=O)N[C@@H](CC(=O)O)C(=O)N[C@@H](CC(=O)O)C(=O)O)[C@@H](C)CC (Decanoyl-AKAPSKIDD-OH)	–
0.09	–	–	CCCCCCCCCC(=O)N1CCC[C@H]1C(=O)N[C@H](C(=O)N[C@@H](C)C(=O)N[C@@H](CC(N)=O)C(=O)N[C@@H](C)C=O)[C@@H](C)O (Decanoyl-PTANA-aldehyde)	MIC [4]: 500 µg/mL (≈ 819 µM); MIC (Staphylococcus aureus [5]): 125 µg/mL (≈ 205 µM); IC50 (Signal peptidase I): 13.4 µM; MIC (Escherichia coli): > 500 µg/mL
2.6	107	inactive	CCCCCCCCCC(=O)N[C@@H](CC(C)C)C(=O)N[C@H](C(=O)N1CCC[C@H]1C(=O)N[C@H](C(=O)N[C@@H](C)C(=O)N[C@@H](CCCCN)C(=O)N[C@@H](C)C(=O)N1CCC[C@H]1C(=O)N[C@@H](CO)C(=O)N[C@@H](CCCCN)C(=O)N[C@H](C(=O)O)[C@@H](C)CC)[C@@H](C)O)[C@@H](C)O (Decanoyl-LTPTAKAPSKI-OH)	–
3.2	106	inactive	CCCCCCCCCC(=O)N1CCC[C@H]1C(=O)N[C@H](C(=O)N[C@@H](C)C(=O)N[C@@H](CCCCN)C(=O)N[C@@H](C)C(=O)N1CCC[C@H]1C(=O)N[C@@H](CO)C(=O)N[C@@H](CCCCN)C(=O)N[C@H](C(=O)N[C@@H](CC(=O)O)C(=O)N[C@@H](CC(=O)O)C(=O)O)[C@@H](C)CC)[C@@H](C)O (Decanoyl-PTAKAPSKIDD-OH)	–
